Blank lines part the entries; values can stand above or below the compound they belong to.
Assays:
S. aureus NCIMB 9587 = assay: Checkerboard synergy test; assay type: cell-based, Staphylococcus aureus; settings: MIC as two-fold dilution fraction of each agent's final dilution (A^3IS 3%; antibiotics 1:100 to 1:3,200,000); overnight 35° C.
Experimental: Stock solutions were prepared according to published standards (CLSI (Clinical and Laboratory Standards Institute): Performance Standards for Antimicrobial Susceptibility testing. Fifteenth Informational Supplement. CLSI document M100-S15. Pennsylvania USA 2005, 19087-1898)
Synergy tests were performed in 96-well microtiter plates containing the A^3IS (from Example 3)/antibiotic combinations in two fold dilutions dispensed in a checkerboard fashion on the day of the assay. Each well contained 0.1 mL of A^3IS/antimicrobial combinations. A suspension of S. aureus test culture was prepared from an overnight broth culture to yield a final inoculum of approximately 3×10^5 to 5×10^5 CFU/mL. Twenty microliters of this suspension was added to all but the sterility control wells. MICs were read after overnight incubation at 35° C. Growth and sterility controls were included in each plate. Each isolate was tested twice. Growth was determined by visually examining each well for evidence of turbidity.
For the first clear well in each row of the microtiter plate containing both antimicrobial agents, the fractional inhibitory concentration (FIC) was calculated as follows: FIC of drug A (FICA)=MIC of drug A in combination/MIC of drug A alone, and the FIC of drug B (FICB)=MIC of drug B in combination/MIC of drug B alone.

[1] = tested on: clinical isolates of Mastitis causing Staphylococcus aureus; assay: Inhibition assay (3 day repeats) on mastitis clinical isolates; assay type: cell-based; settings: FIG. 11b
Experimental: • Escherichia coli (NCIMB 8545), Staphylococcus aureus (NCIMB 9518) and Pseudomonas aeruginosa (NCIMB 8626) are grown on nutrient agar or in nutrient broth for 24 hrs at 37° C. • Candida albicans (NCIMB 3179) and Saccharomyces cerevisiae are grown on sabaroud dextrose agar or in sabaroud dextrose broth for 24 hrs at 37° C. • Propionibacterium acnes (P. acnes ATCC/NTC 11827) is grown anaerobically on blood agar or in nutrient broth for 72 hrs at 37° C. • 22 isolates of Staphylococcus aureus from clinical mastitis obtained from Sligo regional Veterinary Laboratories are grown on nutrient agar or in nutrient broth for 24 hrs at 37° C. • For testing conducted in the Sligo Regional General Hospital; five Beta haemolytic Streptococci Group A clinical isolates are grown on blood agar or in nutrient broth for 24 hrs at 37° C. • Campylobacter coli (NCTC 11366) is grown on brain heart infusion agar or in brain heart infusion broth for 72 hrs at 37° C. • Campylobacter jejuni (NCTC 11322) and three clinical isolates are grown on brain heart infusion agar or in brain heart infusion broth for 72 hrs at 37° C. • MRSA (ATCC 43300) and seven clinical isolates are grown on nutrient agar or in brain heart infusion broth for 72 hrs at 37° C. • Laboratory mould isolates are grown on sabaroud dextrose agar or in sabaroud dextrose broth for 48 hrs at 25° C. • Botrytis cinerea is grown on sabaroud dextrose agar or in sabaroud dextrose broth for 48 hrs at 25° C.
Agar plates are inoculated by swabbing overnight culture onto the plate surface. Plates are allowed to stand at room temperature for 15 minutes before use. Wells 8.2 mm diameter are bored into the surface of the agar. One hundred and eighty μl of sample is placed into each well. The samples diffuse into the agar around the well and are assayed for an ability to produce a zone of inhibition. Plates are incubated for 24, 48 or 72 hrs and zones of inhibition are measured using an Autodata automatic zone reader. The diameter of zones, including the diameter of the well (8.2 mm), is recorded. […]

Candida albicans = assay: Well/disc diffusion inhibition assay of combinations; assay type: cell-based; settings: 50 μl A^3IS + 50 μg agent versus 100 μl A^3IS alone; FIG. 19
Experimental: Various combinations of A^3IS (from Example 3) and antibiotics/antifungal agents were tested against a placebo and A^3IS alone using a well/disc diffusion method. […] Well/Disc Diffusion Methods for Measurement of Microbial Inhibition: Agar plates were inoculated by swabbing overnight culture onto the plate surface. Plates were allowed to stand at room temperature for 15 minutes before use. Wells 8.2 mm diameter were bored into the surface of the agar. 100 μl of samples (a) to (c) was placed into each well. The samples diffuse into the agar around the well and are assayed for an ability to produce a zone of inhibition. Plates are incubated for 24, 48 or 72 hrs and zones of inhibition are measured. The diameter of zones, including the diameter of the well (8.2 mm) was recorded.

L929 cells = assay: ISO 10993-5 agar overlay cytotoxicity (neutral red); settings: 24 hrs
Experimental: ISO 10993, agar overlay tests for cytotoxicity: in vitro method is also used, employing L929 cells (mouse fibroblasts ECACC 85011425). In brief; a confluent monolayer of cells is incubated, this is then covered with a layer fresh medium (EMEM, 2 mM L-Glutamine, 5% FBS, 2% Penicillin-Streptomycin) containing 1.5 g/l of soft agar and allowed to solidify. One tenth of the surface is covered with test materials (previously described) and incubated for 24 hrs. Post incubation the test material is carefully removed and a vital stain (neutral red) in fresh media added. After incubation this is removed, the cells washed and then the dye extracted from the cells and quantified spectrophotometrically for cell viability.
Percent toxicity was calculated according to the formula: % Toxicity=1−(OD average of test material wells/average OD of corresponding control wells (sodium azide added))×100. Included in the assay are a 50% concentration of A^3IS, a range of concentrations of commercial silver containing gel and commercial zinc containing gel product, compared to sodium azide (positive control). […] For the agar overlay toxicity assay the amount of test materials used was similar to that used for the initial direct contact assays of 100 mg per well however the contact time was extended to 24 hrs.

MICs for A^3IS & antibiotics on S. aureus NCIMB 9587 (S. aureus NCIMB 9587): ¼
Compound: CC1(C)S[C@@H]2[C@H](NC(=O)[C@H](N)c3ccc(O)cc3)C(=O)N2[C@H]1C(=O)O [Amoxicillin]

Compound: O=C(N[C@H](CO)[C@H](O)c1ccc([N+](=O)[O-])cc1)C(Cl)Cl [Chloramphenicol]
sensitivity of clinical isolate number 15 [1]: only mild sensitivity

Compound: Clc1ccccc1C(c1ccccc1)(c1ccccc1)n1ccnc1 [Clotrimazole]
effect of combination with hydrogen peroxide source (zone of inhibition) (Candida albicans): effects going beyond a combination/additive effects with hydrogen peroxide

Compound: Cc1cc(C2CCCCC2)n(O)c(=O)c1.NCCO [Cyclopiroxalomine]
effect of combination with hydrogen peroxide source (zone of inhibition) (Candida albicans): effects going beyond a combination/additive effects with hydrogen peroxide

MICs for A^3IS & antibiotics on S. aureus NCIMB 9587 (S. aureus NCIMB 9587): ½
Compound: CC[C@H]1OC(=O)[C@H](C)[C@@H](O[C@H]2C[C@@](C)(OC)[C@@H](O)[C@H](C)O2)[C@H](C)[C@@H](O[C@@H]2O[C@H](C)C[C@H](N(C)C)[C@H]2O)[C@](C)(O)C[C@@H](C)C(=O)[C@H](C)[C@@H](O)[C@]1(C)O [Erythrocin]

MICs for A^3IS & antibiotics on S. aureus NCIMB 9587 (S. aureus NCIMB 9587): ½
Compound: Cc1onc(-c2c(F)cccc2Cl)c1C(=O)N[C@@H]1C(=O)N2[C@@H]1SC(C)(C)[C@@H]2C(=O)O [Flucloxacillin]

MICs for A^3IS & antibiotics on S. aureus NCIMB 9587 (S. aureus NCIMB 9587): ½
Compound: CC[C@H]1OC(=O)[C@H](C)[C@@H](O[C@H]2C[C@@](C)(OC)[C@@H](O)[C@H](C)O2)[C@H](C)[C@@H](O[C@@H]2O[C@H](C)C[C@H](N(C)C)[C@H]2O)[C@](C)(OC)C[C@@H](C)C(=O)[C@H](C)[C@@H](O)[C@]1(C)O [KIacid]

Compound: CC(=O)N1CCN(c2ccc(OCC3COC(Cn4ccnc4)(c4ccc(Cl)cc4Cl)O3)cc2)CC1 (centres unmarked) [Ketoconazole]
effect of combination with hydrogen peroxide source (zone of inhibition) (Candida albicans): effects going beyond a combination/additive effects with hydrogen peroxide

Compound: [H]/N=C(/N)N[C@H]1[C@H](O)[C@@H](O)[C@H](O[C@@H]2O[C@@H](C)[C@](O)(C=O)[C@H]2O[C@@H]2O[C@@H](CO)[C@H](O)[C@@H](O)[C@@H]2NC)[C@@H](N/C(N)=N\[H])[C@@H]1O [Streptomycin]
sensitivity of clinical isolate number 15 [1]: resistant

Compound: CN(C/C=C/C#CC(C)(C)C)Cc1cccc2ccccc12 [Terbidifine]
effect of combination with hydrogen peroxide source (zone of inhibition) (Candida albicans): effects going beyond a combination/additive effects with hydrogen peroxide

Compound: CN[C@H](CC(C)C)C(=O)N[C@H]1C(=O)N[C@@H](CC(N)=O)C(=O)N[C@H]2C(=O)N[C@H]3C(=O)N[C@H](C(=O)N[C@H](C(=O)O)c4cc(O)cc(O)c4-c4cc3ccc4O)[C@H](O)c3ccc(c(Cl)c3)Oc3cc2cc(c3O[C@@H]2O[C@H](CO)[C@@H](O)[C@H](O)[C@H]2O[C@H]2C[C@](C)(N)[C@H](O)[C@H](C)O2)Oc2ccc(cc2Cl)[C@H]1O [Vancomycin]
sensitivity of clinical isolate number 15 [1]: resistant

MICs for A^3IS & antibiotics on S. aureus NCIMB 9587 (S. aureus NCIMB 9587): ¼
Compound: CC1=C(C(=O)O)N2C(=O)[C@@H](NC(=O)[C@H](N)C3=CCC=CC3)[C@H]2SC1 [Velocef, Cefradine]

MICs for A^3IS & antibiotics on S. aureus NCIMB 9587 (S. aureus NCIMB 9587): ½
Compound: CO/N=C(\C(=O)N[C@@H]1C(=O)N2C(C(=O)O)=C(COC(N)=O)CS[C@H]12)c1ccco1 [Zinacef, Cefuroxime]

Compound: [N-]=[N+]=[N-] [sodium azide]
% Toxicity (L929 cells): 100%

Source: patent publication US9393249B2, “Antimicrobial composition” (INSTITUTE OF TECHNOLOGY SLIGO, priority 2008, dated 2016)
